Assay results published in patent publication US20240158393A1, “PYRIDONE COMPOUNDS AND METHODS OF USE” (Exelixis, Inc., priority 2021, published 2024).

Tests used:
Human Axl = target: T1, Human Axl (Homo sapiens, UniProt P30530); test: Human AXL kinase assay (33P radiometric / HTRF KinEase); format: biochemical; details: protocols of Examples A-1 and/or A-2
T1 construct: Human AXL (residues 464-885)
T1 sequence (P30530 1-894 Q764R): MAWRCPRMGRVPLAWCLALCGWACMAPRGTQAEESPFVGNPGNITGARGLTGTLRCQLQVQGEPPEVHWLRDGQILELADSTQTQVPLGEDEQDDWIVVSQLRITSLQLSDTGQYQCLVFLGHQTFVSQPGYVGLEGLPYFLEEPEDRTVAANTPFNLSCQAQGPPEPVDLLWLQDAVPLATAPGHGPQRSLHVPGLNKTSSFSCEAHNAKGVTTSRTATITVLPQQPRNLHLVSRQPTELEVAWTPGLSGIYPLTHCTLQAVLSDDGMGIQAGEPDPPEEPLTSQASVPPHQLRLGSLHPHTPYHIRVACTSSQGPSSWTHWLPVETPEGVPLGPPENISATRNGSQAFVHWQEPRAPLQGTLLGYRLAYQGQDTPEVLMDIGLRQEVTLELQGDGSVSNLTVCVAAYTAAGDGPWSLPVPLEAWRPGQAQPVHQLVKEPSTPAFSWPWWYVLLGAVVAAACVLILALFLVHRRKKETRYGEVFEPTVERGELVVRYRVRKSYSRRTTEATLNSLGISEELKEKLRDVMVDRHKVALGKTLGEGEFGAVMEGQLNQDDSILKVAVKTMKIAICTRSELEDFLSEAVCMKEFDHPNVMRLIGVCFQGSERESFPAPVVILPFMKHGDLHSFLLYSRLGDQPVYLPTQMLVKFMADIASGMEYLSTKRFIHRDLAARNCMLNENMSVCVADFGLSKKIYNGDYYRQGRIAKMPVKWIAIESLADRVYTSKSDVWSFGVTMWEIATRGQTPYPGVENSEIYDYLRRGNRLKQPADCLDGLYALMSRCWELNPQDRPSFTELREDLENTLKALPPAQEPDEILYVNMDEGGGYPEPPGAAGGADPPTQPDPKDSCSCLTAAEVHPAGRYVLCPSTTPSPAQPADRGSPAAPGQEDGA

Human Met = target: T2, Human Met (Homo sapiens, UniProt P08581); test: Human Met kinase assay (33P radiometric / HTRF KinEase); format: biochemical; details: protocols of Examples D-1 and/or D-2; read-out: c-Met IC50
T2 construct: Human MET (residues 956-1390)
Method in brief: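 Two formats gave IC50s by curve fitting. HTRF KinEase used MET residues 956-1390 with 1 μM biotin-peptide and 3.0 μM ATP (Km) for 40 min at room temperature, ten doses in 3% DMSO, 665/620 nm read. The 33P transfer assay used mutant Met R974-S1390 A1209G/V1290L (3.4 nM), 10 μM ATP, 250 μM peptide, pH 7.0, 40 min, nine doses from 1 μM.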

T2 sequence (P08581 974-1390 limits assumed): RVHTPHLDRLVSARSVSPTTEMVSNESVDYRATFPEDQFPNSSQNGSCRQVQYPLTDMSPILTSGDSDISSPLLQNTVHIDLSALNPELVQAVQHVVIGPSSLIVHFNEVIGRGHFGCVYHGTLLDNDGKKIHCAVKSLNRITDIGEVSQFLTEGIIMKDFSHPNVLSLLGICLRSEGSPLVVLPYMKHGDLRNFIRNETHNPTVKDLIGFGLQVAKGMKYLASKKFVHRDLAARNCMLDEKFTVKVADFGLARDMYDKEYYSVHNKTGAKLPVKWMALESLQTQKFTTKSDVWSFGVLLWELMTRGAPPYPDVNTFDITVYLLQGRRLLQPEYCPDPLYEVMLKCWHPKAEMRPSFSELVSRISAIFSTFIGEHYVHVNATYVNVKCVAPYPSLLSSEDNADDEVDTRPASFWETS

Row | Compound | IC50 (Human Axl) | IC50 (Human Met)
1 | COc1cc2nccc(Oc3ccc(NC(=O)c4cnc(C)c(/C=C/C(C)(C)C)c4O)cc3F)c2cc1OC [Compound 30, N-[4-(6,7-Dimethoxyquinolin-4-yl)oxy-3-fluorophenyl]-5-[(E)-3,3-dimethylbut-1-enyl]-4-hydroxy-6-methylpyridine-3-carboxamide] | ≤ 100 nM | ≤ 100 nM
2 | COCCOc1cc2nccc(Oc3ccc(NC(=O)c4cnc(C)c(C5=CCCC5)c4O)cc3F)c2nc1OC [Compound 33, 5-(Cyclopenten-1-yl)-N-[3-fluoro-4-[[6-methoxy-7-(2-methoxyethoxy)-1,5-naphthyridin-4-yl]oxy]phenyl]-4-hydroxy-6-methylpyridine-3-carboxamide] | ≤ 100 nM | ≤ 100 nM
3 | COCCOc1cc2nccc(Oc3ccc(NC(=O)c4cnc(C)c(C5=CCCCC5)c4O)cc3F)c2nc1OC [Compound 34, 5-(Cyclohexen-1-yl)-N-[3-fluoro-4-[[6-methoxy-7-(2-methoxyethoxy)-1,5-naphthyridin-4-yl]oxy]phenyl]-4-hydroxy-6-methylpyridine-3-carboxamide] | ≤ 100 nM | ≤ 100 nM
4 | COCCOc1cc2nccc(Oc3ccc(NC(=O)c4cnc(C)c(C5=CCOCC5)c4O)cc3F)c2nc1OC [Compound 35, 5-(3,6-Dihydro-2H-pyran-4-yl)-N-[3-fluoro-4-[[6-methoxy-7-(2-methoxyethoxy)-1,5-naphthyridin-4-yl]oxy]phenyl]-4-hydroxy-6-methylpyridine-3-carboxamide] | ≤ 100 nM | ≤ 100 nM
5 | COCCOc1cc2nccc(Oc3ccc(NC(=O)c4cnc(C)c(/C=C/C5CCCC5)c4O)cc3F)c2nc1OC [Compound 36, 5-[(E)-2-Cyclopentylethenyl]-N-[3-fluoro-4-[[6-methoxy-7-(2-methoxyethoxy)-1,5-naphthyridin-4-yl]oxy]phenyl]-4-hydroxy-6-methylpyridine-3-carboxamide] | ≤ 100 nM | ≤ 100 nM
6 | COCCOc1cc2nccc(Oc3ccc(NC(=O)c4cnc(C)c(/C=C/C5CC5)c4O)cc3F)c2nc1OC [Compound 37, 5-[(E)-2-Cyclopropylethenyl]-N-[3-fluoro-4-[[6-methoxy-7-(2-methoxyethoxy)-1,5-naphthyridin-4-yl]oxy]phenyl]-4-hydroxy-6-methylpyridine-3-carboxamide] | ≤ 100 nM | ≤ 100 nM
7 | COc1cc2nccc(Oc3ccc(NC(=O)c4c(C)ccn(C(C)C)c4=O)cc3)c2nc1OC [Compound 39, N-[4-[(6,7-Dimethoxy-1,5-naphthyridin-4-yl)oxy]phenyl]-4-methyl-2-oxo-1-propan-2-ylpyridine-3-carboxamide] | > 300 nM | > 300 nM
8 | COCCOc1cc2nccc(Oc3ccc(NC(=O)c4c(C)n(C)c(C)c(C5=CCCC5)c4=O)cc3F)c2nc1OC [Compound 42, 5-(Cyclopenten-1-yl)-N-[3-fluoro-4-[[6-methoxy-7-(2-methoxyethoxy)-1,5-naphthyridin-4-yl]oxy]phenyl]-1,2,6-trimethyl-4-oxopyridine-3-carboxamide] | ≤ 100 nM | ≤ 100 nM
9 | COCCOc1cc2nccc(Oc3ccc(NC(=O)c4c(O)c(C5=CCOCC5)c(C)[n+](C)c4C)cc3F)c2nc1OC [Compound 44, 5-(3,6-Dihydro-2H-pyran-4-yl)-N-[3-fluoro-4-[[6-methoxy-7-(2-methoxyethoxy)-1,5-naphthyridin-4-yl]oxy]phenyl]-1,2,6-trimethyl-4-oxopyridine-3-carboxamide] | ≤ 100 nM | ≤ 100 nM
10 | COCCOc1cc2nccc(Oc3ccc(NC(=O)c4c(C)n(C)c(C)c(/C=C/C(C)(C)C)c4=O)cc3F)c2nc1OC [Compound 45, 5-[(E)-3,3-Dimethylbut-1-enyl]-N-[3-fluoro-4-[[6-methoxy-7-(2-methoxyethoxy)-1,5-naphthyridin-4-yl]oxy]phenyl]-1,2,6-trimethyl-4-oxopyridine-3-carboxamide] | ≤ 100 nM | ≤ 100 nM
11 | COc1cc2nccc(Oc3ccc(NC(=O)c4c(C)n(C)c(C)c(C5CC5)c4=O)cc3F)c2nc1OC [Compound 46, 5-Cyclopropyl-N-[4-[(6,7-dimethoxy-1,5-naphthyridin-4-yl)oxy]-3-fluorophenyl]-1,2,6-trimethyl-4-oxopyridine-3-carboxamide] | 100 to 300 nM | > 300 nM

Second part, the compound after the results:

Row | IC50 (Human Axl) | IC50 (Human Met) | Compound
12 | ≤ 100 nM | > 300 nM | COc1cc2nccc(Oc3ccc(NC(=O)c4cnc(C)c(/C=C/CC(C)C)c4O)cc3F)c2nc1OC [Compound 28, N-[4-[(6,7-Dimethoxy-1,5-naphthyridin-4-yl)oxy]-3-fluorophenyl]-4-hydroxy-6-methyl-5-[(E)-4-methylpent-1-enyl]pyridine-3-carboxamide]
13 | ≤ 100 nM | ≤ 100 nM | COc1cc2nccc(Oc3ccc(NC(=O)c4cnc(C)c(/C=C/CC(C)C)c4O)cc3F)c2cc1OC [Compound 29, N-[4-(6,7-Dimethoxyquinolin-4-yl)oxy-3-fluorophenyl]-4-hydroxy-6-methyl-5-[(E)-4-methylpent-1-enyl]pyridine-3-carboxamide]
14 | ≤ 100 nM | ≤ 100 nM | COc1cc2nccc(Oc3ccc(NC(=O)c4c(C)nc(C)c(C(C)C)c4O)cc3F)c2nc1OC [Compound 31, N-[4-[(6,7-Dimethoxy-1,5-naphthyridin-4-yl)oxy]-3-fluorophenyl]-4-hydroxy-2,6-dimethyl-5-propan-2-ylpyridine-3-carboxamide]
15 | ≤ 100 nM | ≤ 100 nM | COc1cnc2c(Oc3ccc(NC(=O)c4c(C)nc(C)c(C(C)C)c4O)cc3F)ccnc2c1 [Compound 32, N-[3-Fluoro-4-[(7-methoxy-1,5-naphthyridin-4-yl)oxy]phenyl]-4-hydroxy-2,6-dimethyl-5-propan-2-ylpyridine-3-carboxamide]
16 | 100 to 300 nM | > 300 nM | COc1cc2nccc(Oc3ccc(NC(=O)c4c(C)ccn(C(C)C)c4=O)cc3F)c2nc1OC [Compound 38, N-[4-[(6,7-Dimethoxy-1,5-naphthyridin-4-yl)oxy]-3-fluorophenyl]-4-methyl-2-oxo-1-propan-2-ylpyridine-3-carboxamide]
17 | ≤ 100 nM | ≤ 100 nM | COCCOc1cc2nccc(Oc3ccc(NC(=O)c4cnc(C)c(/C=C/C(C)(C)C)c4O)cc3F)c2nc1OC [Compound 40, 5-[(E)-3,3-Dimethylbut-1-enyl]-N-[3-fluoro-4-[[6-methoxy-7-(2-methoxyethoxy)-1,5-naphthyridin-4-yl]oxy]phenyl]-4-hydroxy-6-methylpyridine-3-carboxamide]
18 | ≤ 100 nM | ≤ 100 nM | COCCOc1cc2nccc(Oc3ccc(NC(=O)c4c(C)nc(C)c(C5=CCCC5)c4O)cc3F)c2nc1OC [Compound 41, 5-(Cyclopenten-1-yl)-N-[3-fluoro-4-[[6-methoxy-7-(2-methoxyethoxy)-1,5-naphthyridin-4-yl]oxy]phenyl]-4-hydroxy-2,6-dimethylpyridine-3-carboxamide]
19 | ≤ 100 nM | ≤ 100 nM | COCCOc1cc2nccc(Oc3ccc(NC(=O)c4c(C)nc(C)c(C5=CCOCC5)c4O)cc3F)c2nc1OC [Compound 43, 5-(3,6-Dihydro-2H-pyran-4-yl)-N-[3-fluoro-4-[[6-methoxy-7-(2-methoxyethoxy)-1,5-naphthyridin-4-yl]oxy]phenyl]-4-hydroxy-2,6-dimethylpyridine-3-carboxamide]
